Values quoted from earlier work, collected in patent publication US20220361717A1, “Anti-Pathogenic Hand Sanitization Station” (priority 2021, published 2022).
Entries after “also recorded” stand apart in the source; their conditions may differ.

Assays:
[1] = test system: Bacteria: Gram-positive; Gram-negative; conditions: copolymerization of antimicrobial monomer and styrene; effect on the potency of the monomer
[2] = test system: Bacteria: E. coli; S. aureus; S. typhimurium
[3] = test system: Bacteria: Gram-postive bacteria; conditions: homopolymer versus model compound p-ethylbenzyl tetramethylene sulforium tetrafluoroborate
[4] = test system: Bacteria: Pseudomonas aeruginosa; Staphylococccus
[5] = test system: Bacteria: S. aureus; E. coli; conditions: value = inhibited species
[6] = test system: Bacteria: S. Aureus; P. aeruginosa; E. coli
Bacteria: E-coli = conditions: value = inhibited species

## C=CC(=O)Nc1cccc(C)c1
[1]
  Comparison of Polymers with Monomer: styrene decreases

## C=CC(=O)Oc1ccc(Cl)c2cccnc12
[2]; homopolymer and copolymers with acrylamide versus the monomer
  Comparison of Polymers with Monomer: less effective than
[2]; value = inhibited species
  Inhibited Microbial Species: S. aureus;; also recorded: S. typhimurium

## C=Cc1ccc(C[S+]2CCCC2)cc1
[3]
  Comparison of Polymers with Monomer: is more effective

## C=CC(=O)Oc1cc(Cl)ccc1Oc1ccc(Cl)cc1Cl
[4]; homopolymer and copolymers with methyl methacrylate, styrene versus the monomer
  Comparison of Polymers with Monomer: less effective
[4]; value = inhibited species, 'Pseudomonas aeruginosa' wrapped over cells
  Inhibited Microbial Species: Staphylococccus

## C=C(C)C(=O)OCCOC(=O)C(C)CC1(CCCCCCCC)CCC(CCCCCCCC)(CC(C)C(=O)OCCOC(=O)C(=C)C)CC1 (stereo not shown)
[5]
  Inhibited Microbial Species: Bacteria: S. aureus;; also recorded: E. coli

## C=C(C)C(=O)OCC(O)CSc1nnc(C)s1 (stereo not shown)
[6]; homopolymer effectiveness versus the monomer
  Comparison of Polymers with Monomer: more
[6]; value = inhibited species
  Inhibited Microbial Species: Bacteria: S. Aureus;; also recorded: P. aeruginosa;; also recorded: E. coli;

## C=CC(=O)N1C(C)(C)NC(=O)C1(C)C
Bacteria: E-coli
  Inhibited Microbial Species: Bacteria: E-coli
